# US10196390B2, “TYK2 inhibitors and uses thereof” (Nimbus Lakshmi, Inc., priority 2014, dated 2019)
# What was measured:
# JAK2 = JAK2 (Homo sapiens (Human), UniProt O60674); assay: JAK2 activity inhibition assay (radioactive kinase assay / Caliper assay); type: biochemical; conditions: read-out: JAK2 Ki
# Method in brief: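 Reaction ran 25 min at 28° C after adding peptide/ATP mix (10 mM MgCl2) to compound and enzyme in HEPES pH 7.5 buffer with Brij-35, Triton and EGTA. EDTA stop, then microfluidic off-chip separation quantified phosphorylated peptide.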
# TYK2 = TYK2 (Homo sapiens (Human), UniProt P29597); assay: Tyk2 activity inhibition assay (radioactive kinase assay / Caliper assay); type: biochemical
# TYK2, sequence (P29597 whole entry): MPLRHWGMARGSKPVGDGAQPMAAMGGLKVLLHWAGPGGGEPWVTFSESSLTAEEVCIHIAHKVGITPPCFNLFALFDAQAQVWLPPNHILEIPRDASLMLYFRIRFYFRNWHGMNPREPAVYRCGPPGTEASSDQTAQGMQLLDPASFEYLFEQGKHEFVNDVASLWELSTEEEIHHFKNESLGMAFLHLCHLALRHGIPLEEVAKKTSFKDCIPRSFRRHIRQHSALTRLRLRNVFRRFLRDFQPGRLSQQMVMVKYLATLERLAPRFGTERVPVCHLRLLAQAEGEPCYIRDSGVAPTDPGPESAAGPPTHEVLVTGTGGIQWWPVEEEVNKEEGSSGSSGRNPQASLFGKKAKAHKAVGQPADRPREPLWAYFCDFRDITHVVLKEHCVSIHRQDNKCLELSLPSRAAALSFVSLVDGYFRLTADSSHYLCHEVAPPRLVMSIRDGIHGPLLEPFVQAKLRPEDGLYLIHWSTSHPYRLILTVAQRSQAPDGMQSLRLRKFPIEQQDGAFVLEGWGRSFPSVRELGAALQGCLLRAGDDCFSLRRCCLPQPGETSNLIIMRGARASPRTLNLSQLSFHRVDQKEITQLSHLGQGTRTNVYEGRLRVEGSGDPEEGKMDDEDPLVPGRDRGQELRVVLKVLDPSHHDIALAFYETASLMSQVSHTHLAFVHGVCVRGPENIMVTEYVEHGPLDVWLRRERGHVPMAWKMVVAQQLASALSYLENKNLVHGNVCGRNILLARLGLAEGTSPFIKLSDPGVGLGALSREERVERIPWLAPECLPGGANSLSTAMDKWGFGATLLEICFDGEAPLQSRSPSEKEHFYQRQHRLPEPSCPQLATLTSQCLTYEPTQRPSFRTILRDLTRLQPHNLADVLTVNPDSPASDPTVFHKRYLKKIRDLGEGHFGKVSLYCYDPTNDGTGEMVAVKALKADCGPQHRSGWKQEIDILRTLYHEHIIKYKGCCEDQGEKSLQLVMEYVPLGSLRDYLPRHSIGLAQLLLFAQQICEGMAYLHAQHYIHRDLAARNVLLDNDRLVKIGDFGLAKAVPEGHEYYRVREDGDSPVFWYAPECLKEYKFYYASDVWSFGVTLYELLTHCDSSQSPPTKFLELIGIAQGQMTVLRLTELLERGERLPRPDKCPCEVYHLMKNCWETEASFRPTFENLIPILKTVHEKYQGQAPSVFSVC
# Method in brief: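 Two formats were used. Caliper off-chip mobility shift read phosphorylated peptide 30 (3 uM) after 25 min at 28° C with 9.75 nM TYK2 and ATP at 16 uM or 1 mM. Radioactive assay: 10 μM 33P-ATP, 20 μM peptide, 120 min room temp, P81 filter counting.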
# Tyk2-pSTAT4 = assay: IL-12 induced pSTAT4 in human PBMC; type: cell-based; conditions: IL-12 induced pSTAT4, human PBMC; read-out: Tyk2-pSTAT4 EC50
# Procedure: Human PBMC are isolated from buffy coat and are stored frozen for assays as needed. Cells for assay are thawed and resuspended in complete media containing serum, then cells are diluted to 1.67 E6 cells/ml so that 120 μl per well is 200,000 cells. 15 μl of compound or DMSO is added to the well at the desired concentrations and incubated at 1 hr at 37 C. 15 μl of stimulus (final concentration of 1.7 ng/mL IL-12) is added for 30 minutes prior to pSTAT4 and total STAT4 analysis using cell lysates prepared and analyzed by MSD reagents as per manufacturer protocol. The final DMSO concentration of compound in the assay is 0.1%.
# JAK2, sequence (O60674 whole entry): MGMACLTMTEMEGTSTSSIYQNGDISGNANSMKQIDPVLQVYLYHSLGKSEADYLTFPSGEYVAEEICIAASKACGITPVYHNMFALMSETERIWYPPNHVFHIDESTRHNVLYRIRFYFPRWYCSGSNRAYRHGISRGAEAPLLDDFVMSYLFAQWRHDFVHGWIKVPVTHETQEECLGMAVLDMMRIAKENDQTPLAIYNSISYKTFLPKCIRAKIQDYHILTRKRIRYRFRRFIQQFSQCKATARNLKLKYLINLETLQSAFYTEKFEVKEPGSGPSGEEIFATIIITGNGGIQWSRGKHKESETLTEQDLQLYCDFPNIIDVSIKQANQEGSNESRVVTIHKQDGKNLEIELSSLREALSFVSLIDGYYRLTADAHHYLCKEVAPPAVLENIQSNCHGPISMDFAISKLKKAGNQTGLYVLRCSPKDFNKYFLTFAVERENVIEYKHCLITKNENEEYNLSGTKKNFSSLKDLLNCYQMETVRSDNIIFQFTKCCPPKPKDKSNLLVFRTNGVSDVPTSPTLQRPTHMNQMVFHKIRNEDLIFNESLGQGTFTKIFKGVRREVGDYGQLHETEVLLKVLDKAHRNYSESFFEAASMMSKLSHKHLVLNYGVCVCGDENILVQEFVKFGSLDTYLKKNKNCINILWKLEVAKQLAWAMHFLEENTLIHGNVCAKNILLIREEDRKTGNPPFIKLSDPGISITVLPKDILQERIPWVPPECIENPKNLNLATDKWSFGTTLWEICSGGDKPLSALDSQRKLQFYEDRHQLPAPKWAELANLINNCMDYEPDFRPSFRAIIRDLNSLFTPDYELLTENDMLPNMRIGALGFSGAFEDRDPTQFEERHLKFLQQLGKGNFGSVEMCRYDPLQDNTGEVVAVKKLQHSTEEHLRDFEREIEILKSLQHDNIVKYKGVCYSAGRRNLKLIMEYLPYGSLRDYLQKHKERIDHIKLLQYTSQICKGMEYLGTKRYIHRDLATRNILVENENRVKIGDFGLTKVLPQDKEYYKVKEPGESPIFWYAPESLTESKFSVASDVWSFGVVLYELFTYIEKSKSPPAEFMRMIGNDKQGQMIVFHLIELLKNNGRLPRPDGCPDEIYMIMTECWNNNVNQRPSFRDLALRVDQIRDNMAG
Structure (SMILES),Ki (JAK2) [µM],Ki (TYK2) [µM],EC50 (Tyk2-pSTAT4) [µM]
"O=C(O)Cc1ccc(Nc2nc(-c3c(Cl)cccc3Cl)nc3c2C(=O)NC3)cc1 [Compound I-6, 2-(4-((2-(2,6-dichlorophenyl)-5-oxo-6,7-dihydro-5H-pyrrolo[3,4-d]pyrimidin-4-yl)amino)phenyl)acetic Acid]",0.1 to 1,< 0.01,–
"O=C(Cc1ccc(Nc2nc(-c3c(F)cccc3F)nc3c2C(=O)NC3)cc1)NCC1CCNCC1 [Compound I-13, 2-(4-((2-(2,6-difluorophenyl)-5-oxo-6,7-dihydro-5H-pyrrolo[3,4-d]pyrimidin-4-yl)amino)phenyl)-N-(piperidin-4-ylmethyl)acetamide]",0.1 to 1,< 0.01,–
"COC(=O)[C@@H]1COCCN1C(=O)Cc1ccc(Nc2nc(-c3c(F)cccc3F)nc3c2C(=O)NC3)cc1 [Compound I-111, methyl (S)-4-(2-(4-((2-(2,6-difluorophenyl)-5-oxo-6,7-dihydro-5H-pyrrolo[3,4-d]pyrimidin-4-yl)amino)phenyl)acetyl)morpholine-3-carboxylate]",0.1 to 1,0.01 to 0.1,–
"O=C1NCc2nc(-c3c(F)cccc3F)nc(Nc3ccc(CC(=O)N4CCC[C@@H]4CO)cc3)c21 [Compound I-15, (R)-2-(2,6-difluorophenyl)-4-((4-(2-(2-(hydroxymethyl)pyrrolidin-1-yl)-2-oxoethyl)phenyl)amino)-6,7-dihydro-5H-pyrrolo[3,4-d]pyrimidin-5-one]",0.1 to 1,< 0.01,–
"COc1ccc(Nc2cc(-c3c(F)cccc3Cl)nc3c2C(=O)NC3)nc1 [Compound I-145, 2-(2-chloro-6-fluorophenyl)-4-((5-methoxypyridin-2-yl)amino)-6,7-dihydro-5H-pyrrolo[3,4-b]pyridin-5-one]",0.01 to 0.1,< 0.01,–
"CC1(C)C[C@H](c2ccc(Nc3nc(-c4c(F)cccc4F)nc4c3C(=O)NC4)cc2)C(=O)N1 [Compound I-219, (R)-2-(2,6-difluorophenyl)-4-((4-(5,5-dimethyl-2-oxopyrrolidin-3-yl)phenyl)amino)-6,7-dihydro-5H-pyrrolo[3,4-d]pyrimidin-5-one]",0.01 to 0.1,< 0.01,–

# Continued, values first:
Ki (JAK2) [µM],Ki (TYK2) [µM],EC50 (Tyk2-pSTAT4) [µM],Structure (SMILES)
< 0.01,< 0.01,< 2,"O=C1NCc2nc(-c3c(F)cccc3F)cc(Nc3ccc(N4CC5(COC5)C4)cn3)c21 [Compound I-144, 4-((5-(2-oxa-6-azaspiro[3.3]heptan-6-yl)pyridin-2-yl)amino)-2-(2,6-difluorophenyl)-6,7-dihydro-5H-pyrrolo[3,4-b]pyridin-5-one]"
0.1 to 1,< 0.01,–,"O=C1NCc2nc(-c3c(F)cccc3F)nc(Nc3ccc([C@@H]4CCN(CCN5CCOCC5)C4=O)cc3)c21 [Compound I-123, (S)-2-(2,6-difluorophenyl)-4-((4-(1-(2-morpholinoethyl)-2-oxopyrrolidin-3-yl)phenyl)amino)-6,7-dihydro-5H-pyrrolo[3,4-d]pyrimidin-5-one]"
0.01 to 0.1,< 0.01,–,"O=C1NCc2nc(-c3c(F)cccc3F)cc(Nc3ccc([C@@H]4CCNC4=O)cn3)c21 [Compound I-92, (S)-2-(2,6-difluorophenyl)-4-((5-(2-oxopyrrolidin-3-yl)pyridin-2-yl)amino)-6,7-dihydro-5H-pyrrolo[3,4-b]pyridin-5-one]"
